Test results as given in PubChem BioAssay (NCI).
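GI50 is the concentration that inhibits growth by half. The concentration for full growth arrest is given as TGI.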

Assays:
Assay in all cases: DTP human tumour cell line panel, 384-well format; in the data active = GI50 below about 0.43 µM; inactive = the rest
786-0 renal = test system: 786-0 renal
A498 renal = test system: A498 renal
A549 NSCLC = test system: A549 NSCLC
ACHN renal = test system: ACHN renal
BT-549 breast = test system: BT-549 breast
CAKI-1 renal = test system: CAKI-1 renal
CCRF-CEM leukemia = test system: CCRF-CEM leukemia
DU-145 prostate = test system: DU-145 prostate
EKVX NSCLC = test system: EKVX NSCLC
HCT-116 colon = test system: HCT-116 colon
HCT-15 colon = test system: HCT-15 colon
HL-60(TB) leukemia = test system: HL-60(TB) leukemia
HOP-62 NSCLC = test system: HOP-62 NSCLC
HOP-92 NSCLC = test system: HOP-92 NSCLC
HS 578T breast = test system: HS 578T breast
HT29 colon = test system: HT29 colon
IGROV1 ovarian = test system: IGROV1 ovarian
K-562 leukemia = test system: K-562 leukemia
KM12 colon = test system: KM12 colon
LOX IMVI melanoma = test system: LOX IMVI melanoma
M14 melanoma = test system: M14 melanoma
MALME-3M melanoma = test system: MALME-3M melanoma
MCF7 breast = test system: MCF7 breast
MDA-MB-231 breast = test system: MDA-MB-231 breast
MDA-MB-435 melanoma = test system: MDA-MB-435 melanoma
MDA-MB-468 breast = test system: MDA-MB-468 breast
MOLT-4 leukemia = test system: MOLT-4 leukemia

Nc1nc(Cl)nc2c1ncn2C1CC(O)C(CO)O1 (centres undefined)
108 nM: TGI (HL-60(TB) leukemia)
59.6 nM: TGI (MOLT-4 leukemia)
206 nM: TGI (CCRF-CEM leukemia)
active: GI50 (BT-549 breast) 184 nM | GI50 (CAKI-1 renal) 353 nM | GI50 (CCRF-CEM leukemia) 81.2 nM | GI50 (HCT-116 colon) 270 nM | GI50 (HCT-15 colon) 395 nM | GI50 (HL-60(TB) leukemia) 35.3 nM | GI50 (HOP-62 NSCLC) 236 nM | GI50 (M14 melanoma) 108 nM | GI50 (MALME-3M melanoma) 308 nM | GI50 (MOLT-4 leukemia) 22.9 nM
5140 nM: TGI (ACHN renal)
3800 nM: TGI (LOX IMVI melanoma)
977 nM: TGI (BT-549 breast)
16200 nM: TGI (MDA-MB-468 breast)
969 nM: TGI (HOP-62 NSCLC)
> 100000 nM: TGI (786-0 renal) | TGI (A498 renal) | TGI (A549 NSCLC) | TGI (CAKI-1 renal) | TGI (DU-145 prostate) | TGI (EKVX NSCLC) | TGI (HCT-116 colon) | TGI (HCT-15 colon) | TGI (HOP-92 NSCLC) | TGI (HS 578T breast) | TGI (HT29 colon) | TGI (IGROV1 ovarian) | TGI (K-562 leukemia) | TGI (KM12 colon) | TGI (MALME-3M melanoma) | TGI (MCF7 breast) | TGI (MDA-MB-231 breast) | TGI (MDA-MB-435 melanoma)
448 nM: TGI (M14 melanoma)
inactive: GI50 ([…]-0 renal) 1280 nM | GI50 (A498 renal) 701 nM | GI50 (A549 NSCLC) 434 nM | GI50 (ACHN renal) 923 nM | GI50 (DU-145 prostate) 808 nM | GI50 (EKVX NSCLC) > 100000 nM | GI50 (HOP-92 NSCLC) 9310 nM | GI50 (HS 578T breast) 70700 nM | GI50 (HT29 colon) 1370 nM | GI50 (IGROV1 ovarian) 14700 nM | GI50 (K-562 leukemia) 428 nM | GI50 (KM12 colon) 994 nM | GI50 (LOX IMVI melanoma) 1110 nM | GI50 (MCF7 breast) 650 nM | GI50 (MDA-MB-231 breast) 481 nM | GI50 (MDA-MB-435 melanoma) 743 nM | GI50 (MDA-MB-468 breast) 3030 nM
